Measurements taken from patent publication US20060252800A1, “Anti-leishmania agent” (priority 2003, published 2006).
pIC50: −log10 of the molar value.

Assays:
Leishmania (L. major) = assay: Leishmania protozoa proliferation inhibition assay; assay type: cell-based; settings: for OD level (number of viable Leishmania protozoa): 48 hours at 27° C., absorbance 450 nm minus 630 nm; for pIC50: calculated from the graphs of FIGS. 1 to 4 (concentration vs number of viable leishmania protozoa), read-out: Concentration inhibiting 50% leishmania proliferation
Experimental: After dissolving each of the obtained compounds in dimethylsulfoxide (hereinafter referred to as DMSO), the resultant was diluted by 9 steps in Medium 199 medium (Invitrogen) to the indicated concentration, filtrated with a membrane filter, and each of the filtration was made as a sample solution. […] By keeping the solution at 27° C., incubation was performed under 5% CO2, for 48 hours. Then, TetraColor ONE (tradename: Seikagaku Corporation) reagent was added thereto and further incubated for 6 hours. Then, the absorbance at a wavelength of 450 nm was measured for the 96-well microtiter plate with a microplate reader, the wave length of 630 nm was made as reference wave length, and in order to exclude background effect, the absorbance at 630 nm was excluded from the one at 450 nm, and the OD level was calculated as a level to indicate the number of viable Leishmania protozoa. The assay was performed by three wells at a time for each concentration of each sample, and the mean level was made as OD level. […] Amphotericin B was used as positive control. […] Inhibiting effect against […] protozoa for each sample was similar or more compared with that of Amtephotericin B.

[1] = Table 2, sample concentration 0.0001 mg/ml
[2] = Table 2, sample concentration 0.0007 mg/ml
[3] = Table 2, sample concentration 0.002 mg/ml
[4] = Table 2, sample concentration 0.008 mg/ml
[5] = Table 2, sample concentration 0.025 mg/ml
[6] = Table 2, sample concentration 0.084 mg/ml
[7] = Table 2, sample concentration 0.279 mg/ml
[8] = Table 2, sample concentration 0.93 mg/ml
[9] = Table 2, sample concentration 3.1 mg/ml
[10] = Table 2, sample concentration 2E−04 mg/ml
[11] = Table 1, sample concentration 0.001 mg/ml
[12] = Table 1, sample concentration 0.016384 mg/ml
[13] = Table 1, sample concentration 0.04096 mg/ml
[14] = Table 1, sample concentration 0.1024 mg/ml
[15] = Table 1, sample concentration 0.256 mg/ml
[16] = Table 1, sample concentration 0.64 mg/ml
[17] = Table 1, sample concentration 1.6 mg/ml
[18] = Table 1, sample concentration 4 mg/ml
[19] = Table 1, sample concentration 10 mg/ml
[20] = Table 1, sample concentration 25 mg/ml, mean of three wells
[21] = Table 3, sample concentration 0.001 mg/ml
[22] = Table 3, sample concentration 0.002165 mg/ml
[23] = Table 3, sample concentration 0.0072171 mg/ml
[24] = Table 3, sample concentration 0.02406 mg/ml
[25] = Table 3, sample concentration 0.08019 mg/ml
[26] = Table 3, sample concentration 0.2673 mg/ml
[27] = Table 3, sample concentration 0.891 mg/ml
[28] = Table 3, sample concentration 2.97 mg/ml
[29] = Table 3, sample concentration 9.9 mg/ml
[30] = Table 3, sample concentration 33 mg/ml

| SMILES | pIC50 (Leishmania (L. major)) | OD level (number of viable Leishmania protozoa) (Leishmania (L. major); [11]) | OD level (number of viable Leishmania protozoa) (Leishmania (L. major); [12]) | OD level (number of viable Leishmania protozoa) (Leishmania (L. major); [13]) | OD level (number of viable Leishmania protozoa) (Leishmania (L. major); [14]) | OD level (number of viable Leishmania protozoa) (Leishmania (L. major); [15]) | OD level (number of viable Leishmania protozoa) (Leishmania (L. major); [16]) | OD level (number of viable Leishmania protozoa) (Leishmania (L. major); [17]) | OD level (number of viable Leishmania protozoa) (Leishmania (L. major); [18]) | OD level (number of viable Leishmania protozoa) (Leishmania (L. major); [19]) | OD level (number of viable Leishmania protozoa) (Leishmania (L. major); [20]) | OD level (number of viable Leishmania protozoa) (Leishmania (L. major); [21]) | OD level (number of viable Leishmania protozoa) (Leishmania (L. major); [22]) | OD level (number of viable Leishmania protozoa) (Leishmania (L. major); [23]) | OD level (number of viable Leishmania protozoa) (Leishmania (L. major); [24]) | OD level (number of viable Leishmania protozoa) (Leishmania (L. major); [25]) | OD level (number of viable Leishmania protozoa) (Leishmania (L. major); [26]) | OD level (number of viable Leishmania protozoa) (Leishmania (L. major); [27]) | OD level (number of viable Leishmania protozoa) (Leishmania (L. major); [28]) | OD level (number of viable Leishmania protozoa) (Leishmania (L. major); [29]) | other results |
| --- | --- | --- | --- | --- | --- | --- | --- | --- | --- | --- | --- | --- | --- | --- | --- | --- | --- | --- | --- | --- | --- |
| CCCC[n+]1ccc(/C=c2\s/c(=C3/Sc4ccccc4N3C)c(=O)n2CC)cc1.[Br-] [I (b), 1-butyl-4-[3-ethyl-{5-(3-methyl-2(3H)-benzothiazolylidene)-4-oxo-2-thiazolidinylidene}methyl]pyridinium=bromide] | 5.43 |  |  |  |  |  |  |  |  |  |  |  |  |  |  |  |  |  |  |  | OD level (number of viable Leishmania protozoa) (Leishmania (L. major); [1]): 0.363; OD level (number of viable Leishmania protozoa) (Leishmania (L. major); [2]): 0.345; OD level (number of viable Leishmania protozoa) (Leishmania (L. major); [3]): 0.335; OD level (number of viable Leishmania protozoa) (Leishmania (L. major); [4]): 0.335; OD level (number of viable Leishmania protozoa) (Leishmania (L. major); [5]): 0.435; OD level (number of viable Leishmania protozoa) (Leishmania (L. major); [6]): 0.465; OD level (number of viable Leishmania protozoa) (Leishmania (L. major); [7]): 0.106; OD level (number of viable Leishmania protozoa) (Leishmania (L. major); [8]): 0.032; OD level (number of viable Leishmania protozoa) (Leishmania (L. major); [9]): 0.032; OD level (number of viable Leishmania protozoa) (Leishmania (L. major); [10]): 0.343; melting point: 299 to 300 °C |
| CCCC[n+]1ccccc1/C=c1\s/c(=C2/Sc3ccccc3N2C)c(=O)n1CC.[I-] [I (c), 1-butyl-2-[3-ethyl-{5-(3-methyl-2(3H)-benzothiazolylidene)-4-oxo-2-thiazolidinylidene}methyl]pyridinium=iodide] | 6.00 |  |  |  |  |  |  |  |  |  |  |  |  |  |  |  |  |  |  |  | OD level (number of viable Leishmania protozoa) (Leishmania (L. major); [1]): 0.365; OD level (number of viable Leishmania protozoa) (Leishmania (L. major); [2]): 0.360; OD level (number of viable Leishmania protozoa) (Leishmania (L. major); [3]): 0.394; OD level (number of viable Leishmania protozoa) (Leishmania (L. major); [4]): 0.407; OD level (number of viable Leishmania protozoa) (Leishmania (L. major); [5]): 0.317; OD level (number of viable Leishmania protozoa) (Leishmania (L. major); [6]): 0.117; OD level (number of viable Leishmania protozoa) (Leishmania (L. major); [7]): 0.042; OD level (number of viable Leishmania protozoa) (Leishmania (L. major); [8]): 0.029; OD level (number of viable Leishmania protozoa) (Leishmania (L. major); [9]): 0.031; OD level (number of viable Leishmania protozoa) (Leishmania (L. major); [10]): 0.350; melting point: 237 to 242 °C |
| CCn1c(=Cc2cc[n+](C)cc2)sc(=C2Sc3ccccc3N2C)c1=O.Cc1ccc(S(=O)(=O)[O-])cc1 [IV (j), 4-[(5-(3-methyl-2(3H)-benzothiazolylidene)-4-oxo-3-ethyl-2-thiazolidinylidene}methyl]-1-methylpyridinium=p-toluenesulfonate] | 5.00 | 0.446 | 0.462 | 0.468 | 0.518 | 0.661 | 0.793 | 0.551 | 0.275 | 0.188 | 0.057 |  |  |  |  |  |  |  |  |  |  |
| CN1C(=c2sc(=Cc3sc4ccccc4[n+]3C)n(CC3CCCO3)c2=O)Sc2ccccc21.Cc1ccc(S(=O)(=O)[O-])cc1 (stereo not drawn) [IV (k), 2-[{5-(3-methyl-2(3H)-benzothiazolylidene)-4-oxo-3-(2-tetrahydrofuranyl)methyl-2-thiazolidinylidene}methyl]-1-methylbenzothiazolium=p-toluenesulfonate] | 5.59 |  |  |  |  |  |  |  |  |  |  | 0.338 | 0.356 | 0.344 | 0.341 | 0.351 | 0.348 | 0.371 | 0.434 | 0.154 | OD level (number of viable Leishmania protozoa) (Leishmania (L. major); [30]): 0.029 |
| CN1C(=c2sc(=Cc3cccc[n+]3C)n(CC3CCCO3)c2=O)Sc2ccc3ccccc3c21.Cc1ccc(S(=O)(=O)[O-])cc1 (stereo not drawn) [IV (l), 2-[{5-(3-methyl-2(3H)-benzobenzo[e]thiazolilidene)-4-oxo-3-(2-tetrahydrofuranyl)methyl-2-thiazolidinylidene}methyl]-1-methylpyridinium=p-toluenesulfonate] | 5.89 |  |  |  |  |  |  |  |  |  |  | 0.357 | 0.346 | 0.358 | 0.357 | 0.377 | 0.391 | 0.178 | 0.080 | 0.035 | OD level (number of viable Leishmania protozoa) (Leishmania (L. major); [30]): 0.029 |
| CCn1c(=Cc2sc3ccccc3[n+]2C)sc(=C2Sc3ccc4ccccc4c3N2C)c1=O.Cc1ccc(S(=O)(=O)[O-])cc1 [IV (m), 2-[{5-(3-methyl-2(3H)-benzobenzo[e]thiazolilidene)-4-oxo-3-ethyl-2-thiazolidinylidene}methyl]-1-methylbenzothiazolium=p-toluenesulfonate] | 5.57 |  |  |  |  |  |  |  |  |  |  | 0.340 | 0.344 | 0.342 | 0.354 | 0.379 | 0.422 | 0.385 | 0.149 | 0.033 | OD level (number of viable Leishmania protozoa) (Leishmania (L. major); [30]): 0.027 |
| CN1/C(=C\c2cccc[n+]2C)Sc2ccccc21 [V (a), 2-[(3-methyl-2(3H)-benzothiazolylidene)methyl]-1-methylpyridinium=p-toluenesulfonate] | 6.31 | 0.464 | 0.615 | 1.237 | 0.596 | 0.139 | 0.046 | 0.032 | 0.029 | 0.031 | 0.032 |  |  |  |  |  |  |  |  |  |  |
| CCN1C(=O)CS/C1=C\c1sc2ccccc2[n+]1CC [V (b), 2-[(4-oxo-3-ethyl-2-thiazolidinylidene)methyl]-3-ethylbenzothiazolium=p-toluenesulfonate] | 5.92 | 0.441 | 0.458 | 0.520 | 0.533 | 0.363 | 0.145 | 0.047 | 0.040 | 0.042 | 0.056 |  |  |  |  |  |  |  |  |  |  |
